Values joined by “and” are separate entries in the source; they are usually repeats but may differ in a detail not shown here. Identical values can stand only once. Inconclusive results and toxic doses are left out. Rule as the data show it: active = T/C of 150% or more; inactive = T/C below 125%.
Test system: L1210 leukemia ip in BDF1 mice, survival T/C
Assay: NCI In Vivo Anticancer Drug Screen. Data for tumor model L1210 Leukemia (intraperitoneal) in B6D2F1 (BDF1) mice
Conditions: endpoint: mean survival time, higher = longer survival
Summary of the method: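 Survival endpoint. Drug-treated group vs vehicle group, expressed as T divided by C. Tumor passaged by transplantation.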

[1] = dose: 75.0 mg/kg/injection, schedule: Q01DX001 (ip), vehicle: carboxymethylcellulose (CMC)
[2] = dose: 150.0 mg/kg/injection, schedule: Q01DX001 (ip), vehicle: carboxymethylcellulose (CMC)

Measured: T/C

N#Cc1cnc(N)nc1N
inactive: dose: 50.0 mg/kg/injection, schedule: Q04DX003 (ip), vehicle: Klucel (hydroxypropylcellulose) (HPC) 113 % of control | [1] 92 % of control | dose: 75.0 mg/kg/injection, schedule: Q01DX009 (ip), vehicle: Klucel (hydroxypropylcellulose) (HPC) 102 % of control | dose: 100.0 mg/kg/injection, schedule: Q04DX003 (ip), vehicle: Klucel (hydroxypropylcellulose) (HPC) 97 % of control | [2] 92 % of control | dose: 150.0 mg/kg/injection, schedule: Q01DX009 (ip), vehicle: Klucel (hydroxypropylcellulose) (HPC) 102 % of control | dose: 200.0 mg/kg/injection, schedule: Q04DX003 (ip), vehicle: Klucel (hydroxypropylcellulose) (HPC) 108 % of control

COC(=O)CCc1ccc(NP(=O)(N2CC2)N2CC2)cc1
inactive: dose: 25.0 mg/kg/injection, schedule: Q01DX015 (ip), vehicle: carboxymethylcellulose (CMC) 122 % of control | dose: 50.0 mg/kg/injection, schedule: Q01DX015 (ip), vehicle: carboxymethylcellulose (CMC) 119 % of control

O=C1C=C(Cl)C(=O)c2ccccc21
inactive: dose: 9.38 mg/kg/injection, schedule: Q01DX001 (ip), vehicle: steriod suspending solution 91 % of control

N#CCC(c1ccccc1)C(C#N)c1ccccc1 (stereo not drawn)
inactive: [1] 97 % of control | [2] 93 % of control

C/C=C1/CC(C)C(O)(CO)C(=O)OCC2=CCN3CCC(OC1=O)C23 (stereo not drawn)
inactive: [1] 100 % of control

CCNC(=O)NCc1ccc(Cl)c(Cl)c1
inactive: dose: 100.0 mg/kg/injection, schedule: Q04DX002 (ip), vehicle: Klucel (hydroxypropylcellulose) (HPC) 105 % of control | dose: 200.0 mg/kg/injection, schedule: Q04DX002 (ip), vehicle: Klucel (hydroxypropylcellulose) (HPC) 99 % of control

COc1ccc2[nH]c(-c3ccccc3)cc2c1
inactive: dose: 25.0 mg/kg/injection, schedule: Q01DX009 (ip), vehicle: saline with Tween-80 100 % of control | dose: 50.0 mg/kg/injection, schedule: Q01DX009 (ip), vehicle: saline with Tween-80 108 % of control | dose: 100.0 mg/kg/injection, schedule: Q01DX009 (ip), vehicle: saline with Tween-80 101 % of control

Nc1nc(=S)c2n[nH]nc2[nH]1
inactive: dose: 100.0 mg/kg/injection, schedule: Q01DX001 (ip), vehicle: saline with Tween-80 94 % of control

Cc1cn(-c2ccccc2)c(C)c(C(=O)O)c1=O
inactive: dose: 100.0 mg/kg/injection, schedule: Q01DX001 (ip), vehicle: other 101 % of control | dose: 200.0 mg/kg/injection, schedule: Q01DX001 (ip), vehicle: other 102 % of control | dose: 400.0 mg/kg/injection, schedule: Q01DX001 (ip), vehicle: other 91 % of control

S=c1cc(-c2ccc(Cl)cc2)ss1
inactive: dose: 50.0 mg/kg/injection, schedule: Q01DX009 (ip), vehicle: saline 93 % of control | dose: 100.0 mg/kg/injection, schedule: Q01DX009 (ip), vehicle: saline 93 % of control and 90 % of control | dose: 100.0 mg/kg/injection, schedule: Q04DX003 (ip), vehicle: saline 92 % of control | dose: 200.0 mg/kg/injection, schedule: Q01DX009 (ip), vehicle: saline 95 % of control and 90 % of control | dose: 200.0 mg/kg/injection, schedule: Q04DX003 (ip), vehicle: saline 100 % of control | dose: 300.0 mg/kg/injection, schedule: Q01DX009 (ip), vehicle: saline 95 % of control | dose: 400.0 mg/kg/injection, schedule: Q01DX009 (ip), vehicle: saline 95 % of control

O=C(C(=O)c1ccc(Cl)cc1)c1ccc(Cl)cc1
inactive: dose: 1.56 mg/kg/injection, schedule: Q01DX009 (ip), vehicle: other 106 % of control | dose: 3.13 mg/kg/injection, schedule: Q01DX009 (ip), vehicle: other 95 % of control | dose: 6.25 mg/kg/injection, schedule: Q01DX009 (ip), vehicle: other 97 % of control and 92 % of control | dose: 25.0 mg/kg/injection, schedule: Q01DX009 (ip), vehicle: other 88 % of control | dose: 50.0 mg/kg/injection, schedule: Q01DX001 (ip), vehicle: carboxymethylcellulose (CMC) 94 % of control | dose: 100.0 mg/kg/injection, schedule: Q01DX001 (ip), vehicle: carboxymethylcellulose (CMC) 94 % of control | dose: 100.0 mg/kg/injection, schedule: Q04DX003 (ip), vehicle: saline with Tween-80 86 % of control | dose: 200.0 mg/kg/injection, schedule: Q01DX001 (ip), vehicle: carboxymethylcellulose (CMC) 89 % of control | dose: 200.0 mg/kg/injection, schedule: Q04DX003 (ip), vehicle: saline with Tween-80 88 % of control | dose: 400.0 mg/kg/injection, schedule: Q01DX001 (ip), vehicle: carboxymethylcellulose (CMC) 92 % of control | dose: 400.0 mg/kg/injection, schedule: Q04DX003 (ip), vehicle: saline with Tween-80 88 % of control

CC12CCC3C(CC(=O)C45OC4C(O)CCC35C)C1CCC2=O (stereo not drawn)
inactive: dose: 100.0 mg/kg/injection, schedule: Q01DX001 (sc), vehicle: steriod suspending solution 114 % of control | dose: 200.0 mg/kg/injection, schedule: Q01DX001 (sc), vehicle: steriod suspending solution 114 % of control | dose: 400.0 mg/kg/injection, schedule: Q01DX001 (sc), vehicle: steriod suspending solution 121 % of control

— PubChem BioAssay AID248 (DTP/NCI, 2004)
